Source: ChEMBL document CHEMBL1201862, “PubChem BioAssay data set” (2004)
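Dose response: 5 concentrations. Exposure: 48 h. Format: 96-well plates. Endpoint: linear interpolation; highest concentration if not reached. Here, GI50 denotes the concentration required for 50% inhibition of growth.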 The source made the active and inactive calls. No stated cut-off is given here; in the data, active = GI50 up to about 1.1 µM and inactive = higher.

Assays:
Assay in all cases: NCI-60 cell line screen, 48 h
SK-OV-3 = tested on: SK-OV-3
A549 = tested on: A549
MOLT-4 = tested on: MOLT-4
OVCAR-8 = tested on: OVCAR-8
MDA-N = tested on: MDA-N
SF-295 = tested on: SF-295
SNB-75 = tested on: SNB-75
A498 = tested on: A498
K562 = tested on: K562
RPMI-8226 = tested on: RPMI-8226
EKVX = tested on: EKVX
786-0 = tested on: 786-0
NCI-H23 = tested on: NCI-H23
HCT-116 = tested on: HCT-116
BT-549 = tested on: BT-549
COLO 205 = tested on: COLO 205
SN12C = tested on: SN12C
LOX IMVI = tested on: LOX IMVI
OVCAR-5 = tested on: OVCAR-5
UACC-257 = tested on: UACC-257

Row | Compound | GI50 (SK-OV-3) | GI50 (A549) | GI50 (MOLT-4) | GI50 (OVCAR-8) | GI50 (MDA-N) | GI50 (SF-295) | GI50 (SNB-75) | GI50 (A498) | GI50 (K562) | GI50 (RPMI-8226) | GI50 (EKVX) | GI50 (786-0) | GI50 (NCI-H23) | GI50 (HCT-116) | GI50 (BT-549) | GI50 (COLO 205) | GI50 (SN12C) | GI50 (LOX IMVI) | GI50 (OVCAR-5) | GI50 (UACC-257)
1 | CCO/C=C1\SC(=S)N(c2ccc(OCC)cc2)C1=O | > 100 µM (inactive) | > 100 µM (inactive) | 43.1 µM (inactive) | > 100 µM (inactive) | 45.2 µM (inactive) | 95.3 µM (inactive) | 18.9 µM (inactive) | 80.4 µM (inactive) | 44.6 µM (inactive) | 41.5 µM (inactive) | > 100 µM (inactive) | > 100 µM (inactive) | > 100 µM (inactive) | > 100 µM (inactive) | > 100 µM (inactive) | > 100 µM (inactive) | > 100 µM (inactive) | 83.6 µM (inactive) | > 100 µM (inactive) | 78.7 µM (inactive)
2 | CN(C)NC(=S)Nc1ccccc1Br | > 100 µM (inactive) | > 100 µM (inactive) | > 100 µM (inactive) | > 100 µM (inactive) | > 100 µM (inactive) | > 100 µM (inactive) | 46.5 µM (inactive) | > 100 µM (inactive) | > 100 µM (inactive) | > 100 µM (inactive) | > 100 µM (inactive) | > 100 µM (inactive) | > 100 µM (inactive) | > 100 µM (inactive) | > 100 µM (inactive) | > 100 µM (inactive) |  | > 100 µM (inactive) | > 100 µM (inactive) | > 100 µM (inactive)
3 | BrCc1ccc(CBr)c2c1-c1c(CBr)ccc3ccc(CBr)c-2c13 | > 100 µM (inactive) | > 100 µM (inactive) | 33.8 µM (inactive) | > 100 µM (inactive) | > 100 µM (inactive) | > 100 µM (inactive) | > 100 µM (inactive) | > 100 µM (inactive) | 99.1 µM (inactive) | 95.7 µM (inactive) | > 100 µM (inactive) | > 100 µM (inactive) |  | 98.6 µM (inactive) | > 100 µM (inactive) |  | > 100 µM (inactive) | > 100 µM (inactive) | > 100 µM (inactive) | > 100 µM (inactive)
4 | CC(C)(C)c1ccc(O)c(C[N+](C)(C)C)c1 | > 100 µM (inactive) | > 100 µM (inactive) | > 100 µM (inactive) | > 100 µM (inactive) | > 100 µM (inactive) | > 100 µM (inactive) | > 100 µM (inactive) | 47.5 µM (inactive) | 95.5 µM (inactive) | 63.2 µM (inactive) | 93.1 µM (inactive) | > 100 µM (inactive) | > 100 µM (inactive) | > 100 µM (inactive) | > 100 µM (inactive) | > 100 µM (inactive) | > 100 µM (inactive) | > 100 µM (inactive) | > 100 µM (inactive) | 
5 | Cc1cc(Cl)ccc1NC(=O)/C(Cc1nc2ccc(C(=O)c3ccccc3)cc2nc1O)=N/NC(=O)c1ccncc1 | > 100 µM (inactive) | > 100 µM (inactive) | 64.3 µM (inactive) | > 100 µM (inactive) | 97.3 µM (inactive) | > 100 µM (inactive) | > 100 µM (inactive) | > 100 µM (inactive) | 63.7 µM (inactive) | > 100 µM (inactive) | > 100 µM (inactive) | > 100 µM (inactive) | > 100 µM (inactive) | 50.6 µM (inactive) | > 100 µM (inactive) |  | > 100 µM (inactive) | > 100 µM (inactive) | > 100 µM (inactive) | > 100 µM (inactive)
6 | C=C1C[C@H]2C=Nc3cc(OCCCOc4cc5c(cc4OC)C(=O)N4CC(=C)C[C@H]4C=N5)c(OC)cc3C(=O)N2C1 [SJG-136] | 0.0216 µM (active) | 0.0157 µM (active) | 0.000136 µM (active) | 0.0119 µM (active) | 0.0143 µM (active) | < 0.01 µM (active) | < 0.01 µM (active) | 0.0146 µM (active) | < 0.01 µM (active) | 0.0121 µM (active) |  | < 0.01 µM (active) | 0.00166 µM (active) | 0.0103 µM (active) | 0.0111 µM (active) | < 0.01 µM (active) | < 0.01 µM (active) | < 0.01 µM (active) |  | 0.0146 µM (active)
7 | CCOC1Oc2ccccc2-c2nc(N)ncc21 (centres undefined) | > 100 µM (inactive) | 45.8 µM (inactive) | 52.5 µM (inactive) | 61.9 µM (inactive) | 31.6 µM (inactive) | 34.1 µM (inactive) | 34 µM (inactive) | 22.7 µM (inactive) |  | 40 µM (inactive) | 45.1 µM (inactive) | 58.7 µM (inactive) | > 100 µM (inactive) | 36.5 µM (inactive) | 31.3 µM (inactive) | 57.5 µM (inactive) | 77.1 µM (inactive) | 27 µM (inactive) | > 100 µM (inactive) | 55.2 µM (inactive)
8 | N#Cc1c(-c2ccccc2)cc(Nc2cccc(C(F)(F)F)c2)n2c1nc1ccccc12 | 1.11 µM (active) |  | 0.76 µM (active) | 1.01 µM (active) | 1.4 µM (inactive) | 1.7 µM (inactive) | 1.82 µM (inactive) | 1.64 µM (inactive) |  | 0.237 µM (active) | 1.2 µM (inactive) | 1.54 µM (inactive) | 0.336 µM (active) | 0.471 µM (active) | 3.82 µM (inactive) | 1.04 µM (active) | 0.519 µM (active) | 1.2 µM (inactive) | 2.68 µM (inactive) | 0.733 µM (active)
9 | O=C1NC(c2c(Cl)cccc2Cl)Nc2ccccc21 (centres undefined) | > 100 µM (inactive) | 54.6 µM (inactive) | 47.6 µM (inactive) | 47.1 µM (inactive) | 21.5 µM (inactive) | 47.3 µM (inactive) | 2.89 µM (inactive) | 85.7 µM (inactive) |  | 50.5 µM (inactive) | 56 µM (inactive) | 54.3 µM (inactive) |  | 25.4 µM (inactive) | 60 µM (inactive) | 49.4 µM (inactive) | 65.6 µM (inactive) | 47.2 µM (inactive) | 94.4 µM (inactive) | > 100 µM (inactive)
10 | CC(=O)c1cccc(NC(=O)/C(=N\NC(=S)NN)C2C(=O)Nc3ccccc3[S+]2[O-])c1 (centres undefined) | > 100 µM (inactive) | > 100 µM (inactive) | > 100 µM (inactive) | > 100 µM (inactive) | > 100 µM (inactive) | > 100 µM (inactive) | > 100 µM (inactive) | > 100 µM (inactive) | > 100 µM (inactive) | > 100 µM (inactive) | 39.1 µM (inactive) | > 100 µM (inactive) | > 100 µM (inactive) | > 100 µM (inactive) | > 100 µM (inactive) |  | > 100 µM (inactive) | > 100 µM (inactive) | > 100 µM (inactive) | > 100 µM (inactive)
11 | Cc1ccc(/C=C2/N/C(=N\N=C/C(O)C(O)C(O)C(O)CO)NC2=O)cc1 (centres undefined) | > 100 µM (inactive) | > 100 µM (inactive) |  | > 100 µM (inactive) | > 100 µM (inactive) | > 100 µM (inactive) | > 100 µM (inactive) | > 100 µM (inactive) |  | > 100 µM (inactive) | > 100 µM (inactive) | > 100 µM (inactive) | > 100 µM (inactive) | > 100 µM (inactive) | > 100 µM (inactive) | > 100 µM (inactive) | > 100 µM (inactive) | > 100 µM (inactive) | > 100 µM (inactive) | > 100 µM (inactive)
12 | COc1ccccc1OCC(=N/NC(=O)c1ccncc1)/N=C/c1cccnc1 | > 100 µM (inactive) | > 100 µM (inactive) | > 100 µM (inactive) | > 100 µM (inactive) | > 100 µM (inactive) | > 100 µM (inactive) | 36.5 µM (inactive) | > 100 µM (inactive) | > 100 µM (inactive) | > 100 µM (inactive) | > 100 µM (inactive) | > 100 µM (inactive) | > 100 µM (inactive) | > 100 µM (inactive) | > 100 µM (inactive) | > 100 µM (inactive) |  | > 100 µM (inactive) | > 100 µM (inactive) | > 100 µM (inactive)
13 | Br[Se]c1ccccn1 | 20.5 µM (inactive) | 21.6 µM (inactive) |  | 19.6 µM (inactive) | 17.7 µM (inactive) | 4.5 µM (inactive) | 17 µM (inactive) | 17.9 µM (inactive) | 24.8 µM (inactive) | 23.8 µM (inactive) | 17.6 µM (inactive) | 18.2 µM (inactive) | 20.7 µM (inactive) | 18.3 µM (inactive) | 18.9 µM (inactive) | 17.1 µM (inactive) | 18.7 µM (inactive) | 18.7 µM (inactive) | 20.2 µM (inactive) | 17.8 µM (inactive)
14 | NNC(=O)Cn1c2ccc(Br)cc2c2nc3ccccc3nc21 | 43.7 µM (inactive) | 94.8 µM (inactive) | 11.7 µM (inactive) | 54.3 µM (inactive) | > 100 µM (inactive) | 21.8 µM (inactive) | > 100 µM (inactive) | 47.1 µM (inactive) | 33.8 µM (inactive) | > 100 µM (inactive) | 9.59 µM (inactive) | 17.9 µM (inactive) | 20.4 µM (inactive) |  | > 100 µM (inactive) | > 100 µM (inactive) | > 100 µM (inactive) |  | 53.7 µM (inactive) | 76.4 µM (inactive)
15 | FC(F)(Sc1ncc[nH]1)c1nc2ccccc2o1 | > 100 µM (inactive) | > 100 µM (inactive) | > 100 µM (inactive) | > 100 µM (inactive) | > 100 µM (inactive) | > 100 µM (inactive) | > 100 µM (inactive) | > 100 µM (inactive) | > 100 µM (inactive) | > 100 µM (inactive) |  | > 100 µM (inactive) | > 100 µM (inactive) | > 100 µM (inactive) | > 100 µM (inactive) | > 100 µM (inactive) | > 100 µM (inactive) |  | > 100 µM (inactive) | > 100 µM (inactive)
